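Step 1: Grow cells in 96-well plates. Step 2: Expose to compound for 48 hours at 5 concentrations. Step 3: Interpolate endpoints linearly; if unreached, use highest concentration. TGI is the concentration that stops growth completely.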
Columns and labels:
Experiment in all cases: inhibition of tumour cell growth, NCI panel, 48 h
HS 578T breast = tested on: HS 578T breast
A498 renal = tested on: A498 renal
PC-3 prostate = tested on: PC-3 prostate
HOP-92 NSCLC = tested on: HOP-92 NSCLC
K-562 leukemia = tested on: K-562 leukemia
IGROV1 ovarian = tested on: IGROV1 ovarian
SNB-78 CNS = tested on: SNB-78 CNS
DMS 273 small cell lung = tested on: DMS 273 small cell lung
SF-268 CNS = tested on: SF-268 CNS
UO-31 renal = tested on: UO-31 renal

| SMILES | TGI (HS 578T breast) [µM] | TGI (A498 renal) [µM] | TGI (PC-3 prostate) [µM] | TGI (HOP-92 NSCLC) [µM] | TGI (K-562 leukemia) [µM] | TGI (IGROV1 ovarian) [µM] | TGI (SNB-78 CNS) [µM] | TGI (DMS 273 small cell lung) [µM] | TGI (SF-268 CNS) [µM] | TGI (UO-31 renal) [µM] |
| --- | --- | --- | --- | --- | --- | --- | --- | --- | --- | --- |
| NS(=O)(=O)c1ccc(NC(=O)c2cccc3cc4ccccc4nc23)cc1 | > 100 | > 100 | > 100 | > 100 | > 100 | > 100 | > 100 | > 100 | > 100 | > 100 |
| Cc1c(N=Cc2ccc(N(CCC#N)CCC#N)cc2)c(=O)n(-c2ccccc2)n1C | > 100 | > 100 | > 100 | 99 | > 100 | > 100 | > 100 | > 100 | > 100 | > 100 |
| COC(=O)C1C(OCc2ccccc2)C2CCC1(OC)C=C2C (configuration not stated) | – | > 100 | – | > 100 | > 100 | > 100 | > 100 | > 83.9 | > 100 | > 100 |
| CC(=O)/C=C/c1ccc(C)cc1 | – | > 100 | – | > 100 | > 100 | > 100 | > 100 | > 100 | > 100 | > 100 |
| C/C(=N\N=C(N)N)C(CN(C)C)C(c1ccccc1)c1c(O)c2ccccc2oc1=O (configuration not stated) | > 100 | > 100 | > 100 | > 100 | > 100 | > 100 | > 100 | > 100 | > 100 | > 100 |
| COc1cc(/C=C(\OC(C)=O)c2ccc3c(c2)OCO3)cc(OC)c1OC | – | 71.4 | – | 45.4 | > 100 | 33.1 | 91.9 | 33.6 | 67.5 | 28.2 |
| O=C(/C=C/c1ccccc1Cl)c1ccc(Cl)cc1Cl | – | 33.3 | – | 39 | 11.7 | 27.6 | 36.2 | 29.6 | 31.3 | 36.9 |

— PubChem BioAssay (NCI)
